# Values of other authors, collected in US20120231150A1, “Digestive Enzyme Inhibitor and Methods of Use” (TATE & LYLE INGREDIENTS AMERICAS, LLC, priority 2011, published 2012).
# System: postprandial blood glucose
# Details: use to control blood sugar levels
smiles,measurement,value
C[C@H]1O[C@H](O[C@H]2[C@H](O)[C@@H](O)[C@@H](O[C@H]3[C@H](O)[C@@H](O)C(O)O[C@@H]3CO)O[C@@H]2CO)[C@H](O)[C@@H](O)[C@@H]1N[C@H]1C=C(CO)[C@@H](O)[C@H](O)[C@H]1O (stereo partly shown) [Acarbose],side effects,"undesirable side effects such as gas, bloating, diarrhea"
